From patent publication US20030199017A1, “Method for releasing a product comprising chemical oxidation, method for detecting said product and uses thereof” (Proteus, priority 2000, published 2003)

Key:
[1] = stability of the substrates / oxidation by periodate in the presence of BSA; type: physicochemical; conditions: aqueous media
From the text: The oxidation of 1,2 diols and amino alcohols by periodate in an aqueous medium is a reaction that is well known to one skilled in the art. This reaction provides a purely chemical alternative for the conversion of alcohols into carbonyl groups in aqueous medium with a high chemoselectivity in the presence of other functional groups.
The substrates acetates 1, amide 5 and epoxide 6 are stable in the presence of periodate and BSA […] the aqueous media. […] Under optimized reaction conditions using 100 μm of substrate, 1 mmol of sodium periodate, 2 mg/ml of BSA in a borate buffer with a pH of 8.8, diol 2 is transformed into umbelliferone with a yield of 72% without observable secondary reactions. […] The oxidation of amino alcohol 6 takes place with a yield of 85% under the same conditions.

[2] = target: T1, Candida antarctica lipase (Moesziomyces antarcticus, UniProt P41365); test: Candida antarctica lipase activity based on temperature (release of para-nitrophenol, colorimetry at 414 nm); type: biochemical; conditions: PIPES buffer 0.1 M pH 7, 40 minutes
Description: (§1) The hydrolytic activity of the Candida antarctica lipase was tested on 2 substrates: 2-hydroxy-4-p-nitrophenyl-butyl-decanoate and p-nitro-phenylbutyrate. The lipase activity is detected after hydrolysis of ester functions of substrates that produce the release (direct or indirect) of yellow-colored para-nitrophenol that is measured by colorimetry at 414 nm. The tests were carried out at different temperatures and pH.
(§2) The stock solutions of 2-hydroxy-4-p-nitrophenyl-butyl-decanoate and para-nitrophenolbutyrate (SIGMA) are prepared at the concentration of 20 mmol respectively in acetonitrile and isopropanol. The concentration of lipase B that is used is 0.01 mg/ml in a phosphate buffer (100 mmol, pH 7).
(§3) 74 μl of PIPES buffer (100 mmol, pH 7) and 10 μl of a lipase solution at 0.01 mg/ml are added to 13.6 μmol of 2-hydroxy-4-p-nitrophenyl-butyl-decanoate. The reaction is incubated in a water bath for 40 minutes at 50, 60, 70, 80 and 95° C. The samples are then removed from the water bath. Then, 40 μl of NaIO4 (100 mmol) and 4 μl of BSA (50 mg/ml) are added to the mixture. The pH of the solution is then adjusted to 10 by adding 40 μl of an Na2CO3 solution at 0.2 M. The para-nitrophenol that is released is then measured with a colorimeter at 414 nm.
(§4) 74 μl of PIPES buffer (100 mmol, pH 7) and 10 μl of a lipase solution at 0.01 mg/ml are added to 13.6 μmol of para-nitrophenylbutyrate. The reaction is incubated in a water bath for 40 minutes at 50, 60, 70, 80 and 95° C. The samples are then removed from the water bath, and the pH of the solution is adjusted to 10 with a 0.2 M Na2CO3 solution. The released para-nitrophenol is then measured with a calorimeter at 414 nm.
(§5) The activity of the lipase based on the incubation temperature was measured by using 2-hydroxy-4-p-nitrophenyl-butyl-decanoate and the para-nitrophenylbutyrate commercial substrate. […] The activities are expressed in %. The enzymatic reactions were carried out in the PIPES buffer (0.1 M, pH 7) at 50, 60, 70, 80 and 95° C. for 40 minutes. A negative control without enzyme was also carried out by using the same experimental conditions.

[3] = target: T1, Candida antarctica lipase; test: Candida antarctica lipase activity based on the pH of the solution (release of para-nitrophenol, 414 nm); type: biochemical; conditions: 40 minutes
Description: as §1, §2
The enzymatic activity of the Candida antarctica lipase was carried out at different pH levels by using buffers (100 mmol) listed in Table VII below.
74 μl of buffer at the desired pH (100 mmol) and 10 μl of a lipase solution at 0.01 mg/ml are added to 13.6 μmol of 2-hydroxy-4-p-nitrophenyl-butyl-decanoate. The reaction is incubated in a water bath for 40 minutes at 60° C. The samples are then removed from the water bath. Then, 40 μl of NaIO4 (100 mmol) and 4 μl of BSA (50 mg/ml) are added to the mixture. The pH of the solution is then adjusted to 10 by adding 40 μl of a solution of Na2CO3 at 0.2 M. The para-nitrophenol that is released is then measured with a calorimeter at 414 nm.
(§6) 74 μl of buffer at the desired pH (100 mmol) and 10 μl of a lipase solution at 0.01 mg/ml are added to 13.6 μmol of para-nitrophenylbutyrate. The reaction is incubated in a water bath for 40 minutes at 60° C. The samples are then removed from the water bath, and the pH of the solution is adjusted to 10 with a 0.2 M Na2CO3 solution. The para-nitrophenol that is released is then measured with a colorimeter at 414 nm.
(§7) The hydrolytic activity of the lipase based on the pH of the solution was also measured. […] The activities are expressed in %. The enzymatic reactions were incubated at 60° C. for 40 minutes at pH 3, 4, 5, 6.5, 7 and 8. A negative control without enzyme was also carried out by using the same experimental conditions.

[4] = negative control without enzyme, pH series (para-nitrophenol released from the substrate); type: physicochemical; conditions: 40 minutes, no enzyme
Description: as §6, §7

[5] = negative control without enzyme, temperature series (para-nitrophenol released from the substrate); type: physicochemical; conditions: PIPES buffer 0.1 M pH 7, 40 minutes, no enzyme
Description: as §3
A negative control without enzyme was carried out under the same experimental conditions.
as §4, §5

T1 sequence (P41365 26-342): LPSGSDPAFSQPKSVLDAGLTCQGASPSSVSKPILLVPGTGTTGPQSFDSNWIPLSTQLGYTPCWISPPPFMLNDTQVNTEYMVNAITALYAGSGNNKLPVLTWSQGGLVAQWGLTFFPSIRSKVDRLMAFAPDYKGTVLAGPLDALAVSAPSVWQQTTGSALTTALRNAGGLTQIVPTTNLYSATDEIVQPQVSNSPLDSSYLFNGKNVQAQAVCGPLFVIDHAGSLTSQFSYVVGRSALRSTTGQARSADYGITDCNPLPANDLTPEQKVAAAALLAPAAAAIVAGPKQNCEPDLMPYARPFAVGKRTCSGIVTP

| SMILES | stability in the presence of periodate and BSA [1] | activity of the Candida antarctica lipase (Lipase B) ([2]; 50° C.) | activity of the Candida antarctica lipase (Lipase B) ([2]; 60° C.) | activity of the Candida antarctica lipase (Lipase B) ([2]; 70° C.) | activity of the Candida antarctica lipase (Lipase B) ([2]; 80° C.) | activity of the Candida antarctica lipase (Lipase B) ([2]; 95° C.) | activity of the Candida antarctica lipase (Lipase B) ([3]; pH 3, 60° C.) | activity of the Candida antarctica lipase (Lipase B) ([3]; pH 4, 60° C.) | activity of the Candida antarctica lipase (Lipase B) ([3]; pH 5, 60° C.) | activity of the Candida antarctica lipase (Lipase B) ([3]; pH 6.5, 60° C.) | activity of the Candida antarctica lipase (Lipase B) ([3]; pH 7, 60° C.) | activity of the Candida antarctica lipase (Lipase B) ([3]; pH 8, 60° C.) | activity signal Without enzyme ([4]; pH 3, 60° C.) | activity signal Without enzyme ([4]; pH 4, 60° C.) | activity signal Without enzyme ([4]; pH 5, 60° C.) | activity signal Without enzyme ([4]; pH 6.5, 60° C.) | activity signal Without enzyme ([4]; pH 7, 60° C.) | activity signal Without enzyme ([4]; pH 8, 60° C.) | activity signal Without enzyme ([5]; 50° C.) | activity signal Without enzyme ([5]; 60° C.) | other results |
| --- | --- | --- | --- | --- | --- | --- | --- | --- | --- | --- | --- | --- | --- | --- | --- | --- | --- | --- | --- | --- | --- |
| O=C(Cc1ccccc1)NCC(O)CCOc1ccc2ccc(=O)oc2c1 (stereo not drawn) [amide 5, 1-Phenylacetamido-4-(7-coumarinyloxy)-2-butanol] | stable | – | – | – | – | – | – | – | – | – | – | – | – | – | – | – | – | – | – | – | – |
| NCC(O)CCOc1ccc2ccc(=O)oc2c1 (stereo not drawn) [amino alcohol 6, 1-Amino-4-(7-coumarinyloxy)-2-butanol] | release umbelliferone | – | – | – | – | – | – | – | – | – | – | – | – | – | – | – | – | – | – | – | – |
| O=c1ccc2ccc(OCC[C@H](O)CO)cc2o1 [diol 2, (S)-4-(7-coumarinyloxy)-1,2-butanediol] | release umbelliferone | – | – | – | – | – | – | – | – | – | – | – | – | – | – | – | – | – | – | – | – |
| O=c1ccc2ccc(OCC[C@H]3CO3)cc2o1 [epoxide 6, (S)-4-(7-coumarinyloxy)-1,2-epoxybutane] | stable | – | – | – | – | – | – | – | – | – | – | – | – | – | – | – | – | – | – | – | – |
| CCCCCCCCCC(=O)OCC(O)CCc1ccc([N+](=O)[O-])cc1 (stereo not drawn) [2-hydroxy-4-p-nitrophenyl-butyl-decanoate] | – | 100% | 75.9% | 61.5% | 44.2% | 26.1% | 58.9% | 80.9% | 96.1% | 100% | 72% | 40% | 3.9% | 2.7% | 2.6% | 2.9% | 3.4% | 2.8% | 8.7% | 9.4% | activity signal Without enzyme ([5]; 70° C.): 9.5%; activity signal Without enzyme ([5]; 80° C.): 8.1%; activity signal Without enzyme ([5]; 95° C.): 8.6% |
| CCCC(=O)Oc1ccc([N+](=O)[O-])cc1 [p-Nitrophenylbutyrate, p-nitro-phenylbutyrate, reference compound] | – | 100% | 75.4% | 60.4% | 55.9% | 66.7% | 94.2% | 73% | 100% | 79.5% | 60.8% | 103.9% | 54.9% | 63.6% | 65.6% | 69.2% | 51.4% | 103.9% | 83.6% | 67.3% | activity signal Without enzyme ([5]; 70° C.): 59.5%; activity signal Without enzyme ([5]; 80° C.): 59.8%; activity signal Without enzyme ([5]; 95° C.): 71.5% |
